“Also recorded” adds a separate entry of the source. Values belong to the molecule of their own block, whether it stands above or below them.
Legend:
[1] = test system: amphetamine induced hyperlocomotion in rats; experiment: reversal of amphetamine-induced hyperlocomotion; format: in vivo; settings: 30 mg/kg i.p.
mGlu5 receptor [2] = settings: HTS lead; cited from earlier work
mGlu5 receptor [3] = experiment: triple-add functional calcium mobilization assay, mGlu5; format: cell-based; settings: PAM, Ago-PAM, weak PAM or partial antagonist
mGlu5 receptor [4] = biological target: mGlu5 receptor (Rattus norvegicus, UniProt P31424); experiment: as above; format: cell-based; settings: PAM, Ago-PAM, weak PAM or partial antagonist
[5] = test system: in vivo preclinical antipsychotic model; settings: orally active; cited from earlier work

mGlu5 receptor, sequence (P31424 21-1203): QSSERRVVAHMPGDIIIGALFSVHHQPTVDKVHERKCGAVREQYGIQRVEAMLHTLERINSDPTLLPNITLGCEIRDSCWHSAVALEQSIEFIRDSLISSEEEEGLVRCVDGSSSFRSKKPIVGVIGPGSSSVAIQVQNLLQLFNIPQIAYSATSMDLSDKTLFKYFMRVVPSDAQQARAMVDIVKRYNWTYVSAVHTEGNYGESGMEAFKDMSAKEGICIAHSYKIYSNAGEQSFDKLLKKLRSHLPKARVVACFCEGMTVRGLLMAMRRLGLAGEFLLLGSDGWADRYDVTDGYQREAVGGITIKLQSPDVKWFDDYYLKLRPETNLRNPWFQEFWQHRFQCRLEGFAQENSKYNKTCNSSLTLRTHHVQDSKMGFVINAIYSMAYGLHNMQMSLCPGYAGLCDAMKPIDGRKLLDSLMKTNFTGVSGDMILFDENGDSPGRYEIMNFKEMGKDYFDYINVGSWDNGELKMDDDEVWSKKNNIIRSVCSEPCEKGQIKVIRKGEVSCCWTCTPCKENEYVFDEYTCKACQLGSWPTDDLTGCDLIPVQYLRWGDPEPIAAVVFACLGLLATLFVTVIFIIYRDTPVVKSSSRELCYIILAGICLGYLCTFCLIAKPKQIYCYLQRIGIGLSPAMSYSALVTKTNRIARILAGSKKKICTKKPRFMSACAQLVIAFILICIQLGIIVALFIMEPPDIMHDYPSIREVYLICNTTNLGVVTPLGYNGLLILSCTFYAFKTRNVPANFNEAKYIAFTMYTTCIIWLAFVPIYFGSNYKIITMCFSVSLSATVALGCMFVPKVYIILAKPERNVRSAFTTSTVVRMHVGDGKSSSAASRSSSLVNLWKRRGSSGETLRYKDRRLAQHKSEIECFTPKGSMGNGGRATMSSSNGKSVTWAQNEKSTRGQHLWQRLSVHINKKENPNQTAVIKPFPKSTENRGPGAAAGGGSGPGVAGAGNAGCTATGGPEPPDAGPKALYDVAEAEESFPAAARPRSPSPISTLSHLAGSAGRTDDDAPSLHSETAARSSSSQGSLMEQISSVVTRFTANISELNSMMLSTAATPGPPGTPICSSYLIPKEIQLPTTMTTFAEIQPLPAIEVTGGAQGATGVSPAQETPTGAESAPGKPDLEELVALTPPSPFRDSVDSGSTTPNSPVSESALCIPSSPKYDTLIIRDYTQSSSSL
mGlu5 receptor (Rattus norvegicus, UniProt P31424), sequence (P31424 21-1203): as above

SMILES: O=C1c2ccc(C#Cc3ccccc3)cc2CCN1CC1CC1 [9f]
reversal of amphetamine-induced hyperlocomotion [1]: significant reversal

SMILES: O=C1NCCc2cc(C#Cc3ccccc3)ccc21 [9a]
reversal of amphetamine-induced hyperlocomotion [1]: significant reversal

SMILES: CCCN1CCc2cc(C#Cc3ccccc3)ccc2C1=O [9c]
reversal of amphetamine-induced hyperlocomotion [1]: significant reversal; also recorded: Reversal of amphetamine-induced hyperlocomotion

SMILES: O=C(c1ccc(C#Cc2ccccc2)cc1)N1CCC(O)CC1 [VU0092273]
ligand efficiency (LE) (mGlu5 receptor [2]): ~0.5

Category (mode of pharmacology) (mGlu5 receptor [3]): Weak PAM
SMILES: CC(C)CN1CCc2nc(C#Cc3cccc(F)c3)ccc2C1=O [10c]

SMILES: CN1CCc2nc(C#Cc3cccc(F)c3)ccc2C1=O [10b]
Category (mode of pharmacology) (mGlu5 receptor [4]): partial antagonists; also recorded: Partial Antag

SMILES: O=C1c2ccc(C#Cc3cccc(F)c3)nc2CCN1CC1CC1 [10e]
Category (mode of pharmacology) (mGlu5 receptor [4]): partial antagonists; also recorded: Partial Antag

Category (mode of pharmacology) (mGlu5 receptor [3]): Weak PAM
SMILES: CCCCN1CCc2nc(C#Cc3cccc(F)c3)ccc2C1=O [10d]

SMILES: O=C(NC1CCC1)c1ccc(C#Cc2cccc(F)c2)nc1 [VU0360172]
efficacy in an in vivo preclinical antipsychotic model [5]: efficacious

From publication PMC3498823 (Bioorganic & medicinal chemistry letters, 2011)
